According to publication PMC11948302, “OATP1B-type Transport Function Is a Determinant of Aromatase Inhibitor–Associated Arthralgia Susceptibility” (Cancer Research Communications, 2025):
Marks after values point to notes of the source that are not given here.

What was measured:
[1] = system: mice; experiment: Photobeam activity open field system (physical activity); assay type: in vivo
Experimental: An open-field photobeam activity system was used to monitor the motor activity of mice over a period of 12 hours after administration of letrozole ([27], [28]). Spontaneous physical/locomotor activity was assessed using an activity monitoring system consisting of a two-dimensional (X and Y axes) square frame that emits a grid of infrared beams (IR Actimeter and Actitrack software, Panlab, Harvard Apparatus). Animals were placed in a transparent enclosure inside the frame, and movement within the enclosure (general locomotor activity) was recorded as interruptions in the beams. During acute studies, mice were dosed with letrozole (0.5 mg/kg) orally at 5:00 pm and were tested individually for 12 hours during the active/dark phase of the light cycle (6:00 pm–6:00 am). Physical activity of the mice was similarly monitored at baseline and at the end of 15 days of the chronic treatment.

[2] = system: mice; experiment: Von Frey hair test (mechanical sensitivity); assay type: in vivo
Experimental: Von Frey filaments were used as a mechanical sensitivity measurement following administration of letrozole in both chronic and acute treatments, using a strategy developed previously ([24]). After ensuring that the animal is acquainted with the environment, joint pain was directly evaluated by a hind limb withdrawal response to mechanical stimulation applied by the filaments. […] After a single dose, mechanical sensitivity was tested with the Von Frey filaments at 0, 1, 3, 6, and 24 hours after drug administration ([25], [26]). During the chronic treatment of letrozole (0.1 mg/kg/day for 15 days), mechanical sensitivity was measured at baseline, at the end of week 1, and the end of week 2. Analysts were blinded to the composition of the treatment groups.

[3] = system: Oatp1b2; experiment: CDCA-24G plasma biomarker of hepatic Oatp1b2 function in mice; assay type: in vivo; settings: single oral letrozole 10 mg/kg, 2 hours
Experimental: A, The levels of CDCA-24G biomarker in plasma were measured via LC/MS-MS in wild-type and Cyp3a^(−/−) mice treated with a single oral administration of letrozole (10 mg/kg) or vehicle. […] Data are shown as mean ± SD. Two-sided, unpaired Student t tests were used to analyze the data and no multiple comparison adjustment was applied. **, P < 0.01 and ****, P < 0.0001 compared with the wild-type group; n = 9 to 10 per group.

[4] = system: mice; experiment: Histopathology of knee joints after chronic letrozole; assay type: in vivo; settings: mice receiving multiple doses of letrozole (0.1 mg/kg/day, 15 days)
Experimental: At the end of the chronic letrozole treatment, hind limbs of three randomly selected mice per group were collected, peeled for skin, and preserved in 10% neutral buffered formaline at room temperature for at least 48 hours until tissue processing. Tissues from the hind limbs were routinely processed for histopathology on a Leica Peloris 3 Tissue Processor (Leica Biosystems), embedded in paraffin, sectioned at an approximate thickness of 4 to 5 μm, and batch stained with hematoxylin and eosin on a Leica ST5020 autostainer using a routine and quality-controlled protocol. Slides were evaluated and representative photomicrographs were taken by a board-certified veterinary pathologist using a Nikon Eclipse Ci-L Upright Microscope (Nikon Instruments, Inc.) with attached 18 megapixel Olympus SC180 microscope-mounted digital camera and cellSens imaging software (Olympus Life Science).

[5] = set-up: method as in earlier work; settings: patients receiving continuous dosing regimens, prescribing information; cited from earlier work
[6] = system: patients; settings: randomized phase III, cited from earlier work
[7] = In vivo pharmacokinetic studies in mice (plasma and liver, LC/MS-MS); settings: for AUC fold change vs. WT: 95% confidence interval; for AUC(0-t) / Cmax: female, FVB, mouse, plasma, po; for liver levels, wild-type vs Oatp1a/1b^(−/−) mice / liver concentrations in OATP1B1^(tg) or OATP1B3^(tg) mice: single oral dose, letrozole 10 mg/kg or exemestane 20 mg/kg; for liver concentrations in OATP1B1^(tg) or OATP1B3^(tg) mice: relative to Oatp1a/1b^(−/−) and wild-type
Experimental: The analysis was conducted using a Vanquish UHPLC aligned with a Quantiva triple-stage quadrupole mass spectrometer (Thermo Fisher Scientific). An ACQUITY UPLC BEH C18 Column (130 Å, 1.7 μm, 2.1 mm × 50 mm, Waters Co.) protected by ACQUITY UPLC BEH Shield RP18 VanGuard Pre-column (130 Å, 1.7 μm, 2.1 mm × 5 mm, Waters Co.) was used for analyte separation. The injection volume of the sample was 10 μL. The temperature of the column was kept at 40°C, whereas the autosampler rack was kept at 4°C. The mobile phase consisted of solvent A, which was a solution of 0.1% acetic acid in LC/MS-grade water, and solvent B, which was a solution of 0.1% formic acid in acetonitrile. The total run time was 4.5 minutes. The following were the gradient conditions: 0.3 mL/minutes was the flow rate for the following intervals: 0 to 0.5 minutes, 30% B; 0.5 to 3.0 minutes, 30% to 95% B; 3.0 to 4.0 minutes, 95% B; and 4.001 to 4.5 minutes, 95% to 30% B. The vaporizer was adjusted to 360°C, and the ion transfer tube temperature was 340°C. The mass spectrometry assay was configured with a positive voltage of 3600 V delivered to the ESI capillary. The collision gas utilized was argon, with a pressure of 1.5 mTorr. The mass spectrometer was set up with the following optimized parameters: 1 arbitrary unit (Arb) for sweep gas, 5 Arb for auxiliary gas, and 25 Arb for sheath gas. […] The accuracy, expressed as a percent bias varied from −7.80% to 5.10%, whereas the inter-assay and intra-assay precisions ranged from 2.19% to 7.09% according to the results of assay validation tests. The lower limit of quantification was 0.4 ng/mL.
Letrozole was quantified using an LC/MS-MS method described previously ([14]). A Vanquish UHPLC and Quantiva triple-stage quadrupole mass spectrometer (Thermo Fisher Scientific) were used in the analysis. Analytes were separated chromatographically using a C18 AQUASIL guard cartridge (2.1 mm × 10 mm, 3 μm; Thermo Fisher Scientific) and an Accucore aQ column (50 mm × 2.1 mm, 2.6 μm). The temperature of the column was set at 40°C, whereas the autosampler was kept at 4°C. The mobile phase consisted of solvent A, which was a solution of 0.1% acetic acid in LC/MS-grade water, and solvent B, which was a solution of 0.1% formic acid in acetonitrile. A gradient elution method was employed for 5.0 minutes, with a flow rate of 0.4 mL/minutes. […] Injections were performed using 3 μL of the extracted samples. The mass spectrometer parameters were optimized and configured as follows: 25 Arb for sheath gas, 5 Arb for auxiliary gas, and 1 Arb for sweep gas. The temperature of the ion transfer tube and vaporizer was adjusted to 340°C and 360°C, respectively. Argon was used as the collision gas at a pressure of 1.5 mTorr. […] The lower limit of quantification was 5 ng/mL.
Female wild-type, Oatp1a/1b cluster-knockout mice [Oatp1a/1b^(−/−) mice] and Oatp1a/1b^(−/−) mice with transgenic hepatic expression of OATP1B1 [OATP1B1^(tg) mice] or OATP1B3 [OATP1B3^(tg) mice] were all on an FVB background (RRID: IMSR_T000141), and experimental groups were age- and weight-matched for each experiment. Female mice with a deficiency of all Cyp3a isoforms [Cyp3a^(−/−)] were similarly matched with FVB wild-type mice. All mice were bred in-house. Littermates of the same sex and genotype were housed in groups of maximally five animals in a temperature- and light-controlled environment (12-hour light/dark cycles) in cages lined with absorbent bedding. Mice were given free access to standard food and water.
For in vivo pharmacokinetic studies, mice were randomized into experimental groups of equal size.

[8] = OATP1B1^(tg) mice, chronic letrozole 0.1 mg/kg/day for 15 days, 12 hours
[9] = OATP1B1^(tg) mice, single oral letrozole 0.5 mg/kg, 12 hours
[10] = OATP1B3^(tg) mice, chronic letrozole 0.1 mg/kg/day for 15 days, 12 hours
[11] = OATP1B3^(tg) mice, single oral letrozole 0.5 mg/kg, 12 hours
[12] = Oatp1a/1b^(−/−) mice, chronic letrozole 0.1 mg/kg/day for 15 days, 12 hours
[13] = Oatp1a/1b^(−/−) mice, single oral letrozole 0.5 mg/kg, 12 hours
[14] = wild-type mice, chronic letrozole 0.1 mg/kg/day for 15 days, 12 hours
[15] = wild-type mice, letrozole 0.5 mg/kg, 12 h, Table S4
[16] = wild-type mice, single oral letrozole 0.5 mg/kg, 12 hours
[17] = wild-type mice, single oral letrozole 0.5 mg/kg, 12 hours, listed as letrozole
[18] = 2.5 mg daily for 5 years vs intermittent regimen

With `N#Cc1ccc(C(c2ccc(C#N)cc2)n2cncn2)cc1` [Letrozole] the “Activ. (global activity)” value [1, 8] was 28,800, the Dist. (total distance traveled) [1, 8] was 380 m and the “Locom. (locomotion)” value [1, 8] was 25,909. The “MF (%) (moving fast)” value [1, 8] was 6.22%, the “MS (%) (moving slow)” value [1, 8] was 11.58% and the “RT (%) (resting time % of total duration)” value (“RT (%)” for short) [1, 8] was 82.19%. For the same compound, the “Res.T. (resting time)” value [1, 8] was 9.86 h, the “Stere. (stereotypes)” value [1, 8] was 2,892 and the “Activ. (global activity)” value [1, 9] was 31,678. The Dist. (total distance traveled) [1, 9] was 377 m, the “Locom. (locomotion)” value [1, 9] was 28,964 and the “MF (%) (moving fast)” value [1, 9] was 6.60%. For the same compound, the “MS (%) (moving slow)” value [1, 9] was 11.08%, the “RT (%)” value [1, 9] was 82.34% and the “Res.T. (resting time)” value [1, 9] was 9.88 h. The “Stere. (stereotypes)” value [1, 9] was 2,713, the “Activ. (global activity)” value [1, 10] was 29,841 and the Dist. (total distance traveled) [1, 10] was 373 m. For the same compound, the “Locom. (locomotion)” value [1, 10] was 27,036, the “MF (%) (moving fast)” value [1, 10] was 6.28% and the “MS (%) (moving slow)” value [1, 10] was 12.01%. For the same compound, the “RT (%)” value [1, 10] was 81.71%, the “Res.T. (resting time)” value [1, 10] was 9.80 h and the “Stere. (stereotypes)” value [1, 10] was 2,804. For the same compound, the “Activ. (global activity)” value [1, 11] was 27,095, the Dist. (total distance traveled) [1, 11] was 340 m and the “Locom. (locomotion)” value [1, 11] was 24,448. For the same compound, the “MF (%) (moving fast)” value [1, 11] was 5.72%, the “MS (%) (moving slow)” value [1, 11] was 11.06% and the “RT (%)” value [1, 11] was 83.22%. The “Res.T. (resting time)” value [1, 11] was 9.98 h, the “Stere. (stereotypes)” value [1, 11] was 2,647 and the “Activ. (global activity)” value [1, 12] was 26,637. For the same compound, the Dist. (total distance traveled) [1, 12] was 316 m, the “Locom. (locomotion)” value [1, 12] was 24,065 and the “MF (%) (moving fast)” value [1, 12] was 5.23%. For the same compound, the “MS (%) (moving slow)” value [1, 12] was 11.23* %, the “RT (%)” value [1, 12] was 83.55* % and the “Res.T. (resting time)” value [1, 12] was 10.0* hours. The “Stere. (stereotypes)” value [1, 12] was 2,572, the “Activ. (global activity)” value [1, 13] was 26,674 and the Dist. (total distance traveled) [1, 13] was 286 m. For the same compound, the “Locom. (locomotion)” value [1, 13] was 24,494, the “MF (%) (moving fast)” value [1, 13] was 4.64% and the “MS (%) (moving slow)” value [1, 13] was 10.40%. For the same compound, the “RT (%)” value [1, 13] was 84.96%, the “Res.T. (resting time)” value [1, 13] was 10.2 h and the “Stere. (stereotypes)” value [1, 13] was 2,180*. The “Activ. (global activity)” value [1, 14] was 30,580, the Dist. (total distance traveled) [1, 14] was 383 m and the “Locom. (locomotion)” value [1, 14] was 27,528. For the same compound, the “MF (%) (moving fast)” value [1, 14] was 6.32%, the “MS (%) (moving slow)” value [1, 14] was 13.30% and the “RT (%)” value [1, 14] was 80.34%. For the same compound, the “Res.T. (resting time)” value [1, 14] was 9.64 h, the “Stere. (stereotypes)” value [1, 14] was 3,052 and the “Dist. (total distance traveled)” value [1, 15] was 512 m. The “Res.T. (resting time)” value [1, 15] was 9.06 h, the “Activ. (global activity)” value [1, 16] was 41163 and the Dist. (total distance traveled) [1, 16] was 512 m. The “Locom. (locomotion)” value [1, 16] was 37261, the “MF (%) (moving fast)” value [1, 16] was 8.90% and the “MS (%) (moving slow)” value [1, 16] was 15.53%. For the same compound, the “RT (%)” value [1, 16] was 75.55%, the “Res.T. (resting time)” value [1, 16] was 9.06 h and the “Stere. (stereotypes)” value [1, 16] was 3902. The “Activ. (global activity)” value [1, 17] was 41,163, the “Locom. (locomotion)” value [1, 17] was 37,261 and the “Stere. (stereotypes)” value [1, 17] was 3,902. The “arthralgia-related changes in mechanical sensitivity” value ([2]; Oatp1a/1b^(−/−) mice vs humanized transgenic and wild-type mice, letrozole 0.1 mg/kg daily for 15 days) was “worst arthralgia-related phenotypic changes in mechanical sensitivity”, the “time of maximal mechanical sensitivity after drug administration” value ([2]; wild-type mice, single dose of letrozole) was 6 h and the “mechanical allodynia (paw withdrawal threshold)” value ([2]; wild-type mice, single dose of letrozole 0.1-0.5 mg/kg) was “reversible, concentration- and time-dependent allodynia”. For the same compound, the “increase of CDCA-24G concentration in plasma vs vehicle control” value ([3]; Cyp3a^(−/−) mice) was 2.17 fold, the “increase of CDCA-24G concentration in plasma vs vehicle control” value ([3]; wild-type mice) was 1.62 fold and the “lesions in knee joints (histopathologic examination)” value [4] was “synovial hyperplasia, synovitis, and patellar tendinitis”. The accumulation in plasma [5] was “does not substantially accumulate”, the “7-year disease-free survival, intermittent vs continuous” value [6, 18] was “comparable” and the “incidence of arthralgia, intermittent vs continuous dosing” value [6, 18] was “only slightly decreased”. The “AUC fold change vs. WT” value ([7]; Cyp3a^(−/−) vs wild-type mice, letrozole 10 mg/kg oral) was 1.59 (1.34–1.90), the “AUC fold change vs. WT” value ([7]; OATP1B1^(tg) vs wild-type mice, letrozole 10 mg/kg oral) was 1.29 (0.94–1.78) and the “AUC fold change vs. WT” value ([7]; OATP1B3^(tg) vs wild-type mice, letrozole 10 mg/kg oral) was 1.27 (0.83–1.95). The “AUC fold change vs. WT” value ([7]; Oatp1a/1b^(−/−) vs wild-type mice, letrozole 10 mg/kg oral) was 1.3 (0.92–1.86), the AUC(0-t) ([7]; 10 mg/kg, AUC0–6h, OATP1B1^(tg) female mice, letrozole 10 mg/kg oral, mean with SEM) was 33000 ng·h/mL and the AUC(0-t) ([7]; 10 mg/kg, AUC0–6h, OATP1B3^(tg) female mice, letrozole 10 mg/kg oral, mean with SEM) was 32400 ng·h/mL. The AUC(0-t) ([7]; 10 mg/kg, AUC0–6h, Oatp1a/1b^(−/−) female mice, letrozole 10 mg/kg oral, mean with SEM) was 33300 ng·h/mL, the AUC(0-t) ([7]; 10 mg/kg, AUC0–6h, wild-type female mice, letrozole 10 mg/kg oral, mean with SEM) was 25500 ng·h/mL and the AUC(0-t) ([7]; 10 mg/kg, AUC0–24h, Cyp3a^(−/−) female mice, letrozole 10 mg/kg oral single dose, mean ± SEM) was 141000 ng·h/mL. For the same compound, the AUC(0-t) ([7]; 10 mg/kg, AUC0–24h, wild-type female mice, letrozole 10 mg/kg oral single dose, mean ± SEM) was 88700 ng·h/mL, the Cmax ([7]; 10 mg/kg, Cyp3a^(−/−) female mice, letrozole 10 mg/kg oral single dose, mean ± SEM) was 6820 ng/mL and the Cmax ([7]; 10 mg/kg, OATP1B1^(tg) female mice, letrozole 10 mg/kg oral, mean with SEM) was 6550 ng/mL. The Cmax ([7]; 10 mg/kg, OATP1B3^(tg) female mice, letrozole 10 mg/kg oral, mean with SEM) was 6670 ng/mL, the Cmax ([7]; 10 mg/kg, Oatp1a/1b^(−/−) female mice, letrozole 10 mg/kg oral, mean with SEM) was 6750 ng/mL and the Cmax ([7]; 10 mg/kg, wild-type female mice, letrozole 10 mg/kg oral single dose, Table 1 study, mean ± SEM) was 5800 ng/mL. For the same compound, the Cmax ([7]; 10 mg/kg, wild-type female mice, letrozole 10 mg/kg oral, Table 2 study, mean with SEM) was 5180 ng/mL, the “liver levels, wild-type vs Oatp1a/1b^(−/−) mice” value [7] was “higher levels” and the “liver concentrations in OATP1B1^(tg) or OATP1B3^(tg) mice” value [7] was “partially restored”.
For `C=C1C[C@@H]2[C@H](CC[C@]3(C)C(=O)CC[C@@H]23)[C@@]2(C)C=CC(=O)C=C12` [Exemestane], the “suppression of estrogen levels and reduction of breast cancer tissue proliferation, intermittent vs standard daily dosing” value ([6]; 25 mg three times a week vs 25 mg daily) is listed as “non-inferior”, the “AUC fold change vs. WT” value ([7]; OATP1B3^(tg) vs wild-type mice, exemestane 20 mg/kg oral) is listed as 2.27 (1.49–3.44) and the “AUC fold change vs. WT” value ([7]; Oatp1a/1b^(−/−) vs wild-type mice, exemestane 20 mg/kg oral) is listed as 2.25 (1.60–3.18). The AUC(0-t) ([7]; 20 mg/kg, AUC0–6h, OATP1B3^(tg) female mice, exemestane 20 mg/kg oral, mean with SEM) was 294 ng·h/mL, the AUC(0-t) ([7]; 20 mg/kg, AUC0–6h, Oatp1a/1b^(−/−) female mice, exemestane 20 mg/kg oral, mean with SEM) was 292 ng·h/mL and the AUC(0-t) ([7]; 20 mg/kg, AUC0–6h, wild-type female mice, exemestane 20 mg/kg oral, mean with SEM) was 130 ng·h/mL. It also gave a Cmax ([7]; 20 mg/kg, OATP1B3^(tg) female mice, exemestane 20 mg/kg oral, mean with SEM) of 152 ng/mL, a Cmax ([7]; 20 mg/kg, Oatp1a/1b^(−/−) female mice, exemestane 20 mg/kg oral, mean with SEM) of 159 ng/mL and a Cmax ([7]; 20 mg/kg, wild-type female mice, exemestane 20 mg/kg oral, mean with SEM) of 94 ng/mL. The “liver levels, wild-type vs Oatp1a/1b^(−/−) mice” value [7] was “higher levels” and the “liver concentrations in OATP1B1^(tg) or OATP1B3^(tg) mice” value [7] was “partially restored”.
